From the supplement of paper PMC10627819

What was measured:
[1] = test system: S. aureus Newman; assay: Bliss interaction score (quartile over a dose matrix) (fitness difference); higher = more antagonism (negative = synergy)
Procedure, shortened: (§1)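 The Bliss score subtracts expected fitness, the product of the single-drug fitness values, from observed fitness. Fitness is plate-normalised OD595 at entry into stationary phase, relative to the robust no-drug mean and capped at 1, with single-drug fitness inferred from combinations. Summaries are quartiles over technical, biological and donor/recipient replicates.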

[2] = test system: S. pneumoniae D39V; assay: as above
Procedure, shortened: as §1

[3] = test system: B. subtilis 168; assay: as above
Procedure, shortened: as §1

[4] = test system: S. aureus DSM 20231; assay: as above
Procedure, shortened: as §1

[5] = test system: S. pneumoniae D39V; assay: fitness (endpoint OD595 vs no drug) (fraction); higher = more growth
Procedure, shortened: (§2)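 Cultures at OD595 0.01 were dispensed into 384-well plates in TSB, LB Lennox or CY and incubated at 37 °C. Every 30 min for 14 h, OD595 was read and corrected by the first reading. Fitness is the optical density at entry into stationary phase relative to the robust mean of no-drug control wells, capped at 1.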

[6] = test system: B. subtilis 168; assay: as above
Procedure, shortened: as §2
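For Bliss interaction score (quartile over a dose matrix) in this document: first quartile when negative (synergy) and third quartile when positive (antagonism).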

CN(C)C(=O)C(CCN1CCC(O)(c2ccc(Cl)cc2)CC1)(c1ccccc1)c1ccccc1 [Loperamide] + CN(C)c1cc(NC(=O)CNC(C)(C)C)c(O)c2c1C[C@H]1C[C@H]3[C@H](N(C)C)C(O)=C(C(N)=O)C(=O)[C@@]3(O)C(O)=C1C2=O [Tigecycline]
Settings	Bliss interaction score
[1]	0.0321
[2]	0.084
[3]	0.115
[4]	-0.115

fitness
Settings	first compound 17.14 µg/mL	first compound 20 µg/mL	first compound 25 µg/mL	first compound 34.28 µg/mL	first compound 40 µg/mL	first compound 50 µg/mL	first compound 80 µg/mL	first compound 100 µg/mL
[5], partner 0.65 µg/mL	0.945	0.995	–	0.993	0.991	–	0.0427	–
[5], partner 1.3 µg/mL	≥ 1	0.931	–	0.991	0.977	–	0.0494	–
[5], partner 2.6 µg/mL	≥ 1	0.944	–	0.98	0.995	–	0.0611	–
[6], partner 0.039 µg/mL	–	–	0.894	–	–	0.132	–	0.0203
[6], partner 0.078 µg/mL	–	–	0.832	–	–	0.0334	–	0.0305
[6], partner 0.156 µg/mL	–	–	0.825	–	–	0.0355	–	0.0215

fitness, one replicate
Settings	partner 0.125 µg/mL	partner 0.25 µg/mL	partner 0.5 µg/mL	partner 0.65 µg/mL	partner 1.3 µg/mL	partner 2.6 µg/mL
[5], first compound 68.57 µg/mL	–	–	–	≥ 1	≥ 1	≥ 1
[6], first compound 25 µg/mL	0.978	0.884	0.858	–	–	–
[6], first compound 50 µg/mL	0.327	0.22	0.272	–	–	–
[6], first compound 100 µg/mL	0.67	0.512	0.67	–	–	–

CN(C)C(=O)C(CCN1CCC(O)(c2ccc(Cl)cc2)CC1)(c1ccccc1)c1ccccc1 [Loperamide] + CN(N=O)C(=O)N[C@@H](C=O)[C@@H](O)[C@H](O)[C@H](O)CO [Streptozotocin]
Settings	Bliss interaction score
[1]	0.0514
[2]	0.0707
[3]	-0.0219
[4]	0.103

fitness, [5]
Settings	partner 1.2 µg/mL	partner 2.4 µg/mL	partner 4.8 µg/mL
first compound 17.14 µg/mL	0.962	0.943	0.974
first compound 34.28 µg/mL	0.956	0.982	0.978

fitness, one replicate
Settings	first compound 20 µg/mL	first compound 25 µg/mL	first compound 40 µg/mL	first compound 50 µg/mL	first compound 68.57 µg/mL	first compound 80 µg/mL	first compound 100 µg/mL
[5], partner 1.2 µg/mL	≥ 1	–	≥ 1	–	0.971	0.0146	–
[5], partner 2.4 µg/mL	≥ 1	–	≥ 1	–	0.929	0.0167	–
[5], partner 4.8 µg/mL	≥ 1	–	≥ 1	–	≥ 1	0	–
[6], partner 0.15 µg/mL	–	0.843	–	0.0229	–	–	0.0221
[6], partner 0.3 µg/mL	–	0.802	–	0.0269	–	–	0.0127
[6], partner 0.6 µg/mL	–	0.821	–	0.025	–	–	0.02

CN(C)C(=O)C(CCN1CCC(O)(c2ccc(Cl)cc2)CC1)(c1ccccc1)c1ccccc1 [Loperamide] + CN[C@@H]1[C@H](O)[C@H](NC)[C@H]2O[C@@]3(O)C(=O)C[C@@H](C)O[C@H]3O[C@@H]2[C@H]1O [Spectinomycin]
Settings	Bliss interaction score
[1]	-0.103
[2]	0.126
[3]	0.354
[4]	0.104

fitness
Settings	partner 2 µg/mL	partner 4 µg/mL	partner 8 µg/mL	partner 16 µg/mL
[5], first compound 17.14 µg/mL	–	0.983	0.974	0.93
[5], first compound 34.28 µg/mL	–	0.994	0.909	0.929
[6], first compound 25 µg/mL	0.812	0.78	0.566	–

fitness, [5], one replicate
Settings	first compound 20 µg/mL	first compound 40 µg/mL	first compound 68.57 µg/mL	first compound 80 µg/mL
partner 4 µg/mL	≥ 1	≥ 1	≥ 1	0.977
partner 8 µg/mL	≥ 1	≥ 1	≥ 1	0.966
partner 16 µg/mL	–	–	0.983	–

CN(C)C(=O)C(CCN1CCC(O)(c2ccc(Cl)cc2)CC1)(c1ccccc1)c1ccccc1 [Loperamide] + CN[C@@H]1[C@H](O[C@H]2[C@H](O[C@H]3[C@H](O)[C@@H](O)[C@H](N=C(N)N)[C@@H](O)[C@@H]3N=C(N)N)O[C@@H](C)[C@]2(O)C=O)O[C@@H](CO)[C@H](O)[C@H]1O [Streptomycin]
Settings	Bliss interaction score
[1]	0.0869
[2]	0.125
[3]	-0.0818
[4]	-0.236

fitness
Settings	partner 2 µg/mL	partner 4 µg/mL	partner 8 µg/mL
[5], first compound 17.14 µg/mL	0.941	0.98	0.961
[5], first compound 20 µg/mL	–	≥ 1	0.987
[5], first compound 34.28 µg/mL	0.948	0.992	0.967
[5], first compound 40 µg/mL	–	0.997	≥ 1
[6], first compound 25 µg/mL	0.643	0.106	0.0172
[6], first compound 50 µg/mL	0.0768	0.0399	0.019
[6], first compound 100 µg/mL	0.0865	0.0369	0.0223

fitness, [5], one replicate
Settings	first compound 20 µg/mL	first compound 40 µg/mL	first compound 68.57 µg/mL	first compound 80 µg/mL
partner 2 µg/mL	≥ 1	≥ 1	0.871	0.86
partner 4 µg/mL	–	–	0.973	–
partner 8 µg/mL	–	–	0.966	–
partner 16 µg/mL	0.918	0.931	–	0.107

CN(C)C(=O)C(CCN1CCC(O)(c2ccc(Cl)cc2)CC1)(c1ccccc1)c1ccccc1 [Loperamide] + COc1c(N2C[C@@H]3CCCN[C@@H]3C2)c(F)cc2c(=O)c(C(=O)O)cn(C3CC3)c12 [Moxifloxacin]
Settings	Bliss interaction score
[1]	0.0359
[2]	0.0769
[3]	0.035
[4]	0.13

Settings	fitness
[5], first compound 17.14 µg/mL, partner 0.0037 µg/mL	0.897
[5], first compound 17.14 µg/mL, partner 0.0075 µg/mL	0.952
[5], first compound 17.14 µg/mL, partner 0.015 µg/mL	0.85
[5], first compound 20 µg/mL, partner 0.005 µg/mL	≥ 1
[5], first compound 20 µg/mL, partner 0.01 µg/mL	≥ 1
[5], first compound 20 µg/mL, partner 0.02 µg/mL	≥ 1
[5], first compound 34.28 µg/mL, partner 0.0037 µg/mL	0.822
[5], first compound 34.28 µg/mL, partner 0.0075 µg/mL	0.905
[5], first compound 34.28 µg/mL, partner 0.015 µg/mL	0.836
[5], first compound 40 µg/mL, partner 0.005 µg/mL	≥ 1
[5], first compound 40 µg/mL, partner 0.01 µg/mL	≥ 1
[5], first compound 40 µg/mL, partner 0.02 µg/mL	≥ 1
[6], first compound 25 µg/mL, partner 0.0312 µg/mL	0.0408
[6], first compound 25 µg/mL, partner 0.0625 µg/mL	0.0524
[6], first compound 25 µg/mL, partner 0.125 µg/mL	0.0382
[6], first compound 25 µg/mL, partner 2 µg/mL	0.0259
[6], first compound 25 µg/mL, partner 4 µg/mL	0.0205
[6], first compound 25 µg/mL, partner 8 µg/mL	0.017
[6], first compound 50 µg/mL, partner 0.0312 µg/mL	0.0458
[6], first compound 50 µg/mL, partner 0.0625 µg/mL	0.0525
[6], first compound 50 µg/mL, partner 0.125 µg/mL	0.068
[6], first compound 50 µg/mL, partner 2 µg/mL	0.0274
[6], first compound 50 µg/mL, partner 4 µg/mL	0.0294
[6], first compound 50 µg/mL, partner 8 µg/mL	0.0145
[6], first compound 100 µg/mL, partner 0.0312 µg/mL	0.0464
[6], first compound 100 µg/mL, partner 0.0625 µg/mL	0.0527
[6], first compound 100 µg/mL, partner 0.125 µg/mL	0.0413
[6], first compound 100 µg/mL, partner 2 µg/mL	0.0272
[6], first compound 100 µg/mL, partner 4 µg/mL	0.0176
[6], first compound 100 µg/mL, partner 8 µg/mL	0.0179

[5], first compound 68.57 µg/mL, one replicate
Settings	fitness
partner 0.0037 µg/mL	0.729
partner 0.0075 µg/mL	0.796
partner 0.015 µg/mL	0.779
